# US20160256560A1, “Environmentally Sensitive Compositions” (priority 2010, published 2016)
# *1 amine or outer side, *2 acyl side, *3 side chain or, on linkers, in order; H or OH if unused. Where a SMILES comes first, the peptide text is derived from it. Bridges are numbered along the chain shown (N, C = ends). [ ]: non-standard residue; d: D form. ξ: configuration not given here. ξTrp(2-yl) = O=C(C(Cc1c([*:3])[nH]c2ccccc12)N[*:1])[*:2]; X1 = CC(O)(CO)CC(N[*:1])C(=O)[*:2]; Hyp = O=C(O)[CH]1C[CH](O)CN1
# Legend:
# [1] = system: HeLa cells; format: cell-based, human; conditions: 1 uM, pH 6.2, 1.5 h
# [2] = format: in vitro ADME; conditions: pH 6.2
# [3] = system: HeLa cells
# [4] = system: JC cells; conditions: pH 6.1
# [5] = system: M4A4 cells
# [6] = system: HeLa or M4A4 cells
# [7] = target: actin filaments; conditions: read-out: Kd, binding to actin filaments; cited from earlier work
# [8] = physchem
# [9] = target: Rabbit muscle actin, polymerized filamentous actin (F-actin) (rabbit) (UniProt P68135); assay: fluorescence anisotropy (ex 570 nm / em 610 nm), titration of phallTxR by F-actin; value for unbound tracer
# [10] = target: Rabbit muscle actin, polymerized filamentous actin (F-actin) (rabbit) (UniProt P68135); assay: fluorescence anisotropy (ex 570 nm / em 610 nm), separate titration of phallTxR by F-actin without competitor; value for fully bound tracer
compound,measurement,setting,value
"CC[C@H](C)[C@@H]1NC(=O)CNC(=O)[C@@H]2Cc3c([nH]c4cc(O)ccc34)[S@+]([O-])C[C@H](NC(=O)CNC1=O)C(=O)N[C@@H](CC(N)=O)C(=O)N1C[C@H](O)C[C@H]1C(=O)N[C@@H]([C@@H](C)[C@@H](O)CO)C(=O)N2 [amanitin, α-amanitin]",cell growth after treatment (ECIS),[1],continue to grow
CC[C@H](C)[C@H](NC(=O)[C@@H]1CCCN1C(=O)[C@H](CC(N)=O)NC(=O)[C@H](CCC(N)=O)NC(=O)[C@H](CCC(=O)O)NC(=O)[C@H](C)NC(=O)[C@H](C)NC(C)=O)C(=O)N[C@@H](Cc1ccc(O)cc1)C(=O)N[C@@H](Cc1c[nH]c2ccccc12)C(=O)N[C@@H](C)C(=O)N[C@@H](CCCNC(=N)N)C(=O)N[C@@H](Cc1ccc(O)cc1)C(=O)N[C@@H](C)C(=O)N[C@@H](CC(=O)O)C(=O)N[C@@H](Cc1c[nH]c2ccccc12)C(=O)N[C@@H](CC(C)C)C(=O)N[C@@H](Cc1ccccc1)C(=O)N[C@H](C(=O)N[C@H](C(=O)N1CCC[C@H]1C(=O)N[C@@H](CC(C)C)C(=O)N[C@@H](CC(C)C)C(=O)N[C@@H](CC(C)C)C(=O)N[C@@H](CC(C)C)C(=O)N[C@@H](CC(=O)O)C(=O)N[C@@H](CC(C)C)C(=O)N[C@@H](C)C(=O)N[C@@H](CC(C)C)C(=O)N[C@@H](CC(C)C)C(=O)N[C@H](C(=O)N[C@@H](CC(=O)O)C(=O)N[C@@H](C)C(=O)N[C@@H](CC(=O)O)C(=O)N[C@@H](CCC(=O)O)C(=O)NCC(=O)N[C@H](C(=O)N[C@@H](CCCCNC(=O)c1ccc(-c2c3ccc(N(C)C)cc3[o+]c3cc(N(C)C)ccc23)c(C(=O)[O-])c1)C(=O)N[C@@H](CSSCCC(=O)NC[C@](C)(O)C[C@@H]1NC(=O)[C@@H]2Cc3c([nH]c4ccccc34)SC[C@H](NC(=O)[C@@H]([C@H](C)O)NC(=O)[C@H](C)NC1=O)C(=O)N1C[C@@H](O)C[C@H]1C(=O)N[C@@H](C)C(=O)N2)C(=O)NCC(=O)O)[C@@H](C)O)C(C)C)[C@@H](C)O)[C@@H](C)O [pHLIP-K(rho)C(aph)],decomposition during cell incubation (HPLC),[2],no detectable decomposition
same,effect on cell growth,[3]; pH 7.4,did not have any effect on cell growth
same,inhibition of JC growth,[4],78%
same,inhibition of M4A4 proliferation,[5]; pH 6.2,92%
same,multinucleation,[6],became multinucleated
same,cytoskeletal immobilization on trypsinization / cytotoxic morphology,[6]; pH 6.1,exhibited a reduced ability to contract
CC1NC(=O)C(CC(C)(O)CO)NC(=O)C2Cc3c([nH]c4ccccc34)SCC(NC(=O)C(C(C)O)NC1=O)C(=O)N1CC(O)CC1C(=O)NC(C)C(=O)N2 (stereo not shown) [phalloidin] (cyclo([X1]ATC[Hyp]A[ξTrp(2-yl)]); thioether 4-7; configuration not given here),inhibitory effect on HeLa proliferation,[3],no inhibitory effect
same,inhibitory effect on M4A4 proliferation,[5],no inhibitory effect
same,Kd,[7],< 40 nM
same,logP,[8],-1.5
Texas Red-X phalloidin (peptide),fluorescence anisotropy,[9],0.04
same,fluorescence anisotropy,[10],0.24
